≈ marks a conversion by molar mass, not a printed value.
Legend:
HIV-1RF = test: CEM-T4 cell infection assay, reverse transcriptase readout, isolate RF; format: cell-based; details: Human immunodeficiency virus 1, CEM-T4, 168 h, Table 6, CEM-T4 cells, 7 days, read-out: Virus Isolate (EC50 ng/mL) RF
Text: (§1) RF represents the HIV-1 strain HIV-LRF and RFR represents a mixture of resistant strains obtained by selection of RF against the compound of Example 1. RFR comprises a mixture of viral strains having protease genotypes of G48V (14/40 clones); G48V, V82A (18/40 clones); G48V, L90S (2/40 clones); G48V, 154T, V82A (1/40 clones); G48M (1/40 clones); G48V, Q61H (1/40 clones); V13I, G48V (1/40 clones); G48V, F53L, V82A (1/40 clones); and G48V, V82A, C95Y (1/40 clones). RFR2 represents a mixture of resistant strains obtained by cloning RFR by three rounds of growth at limiting dilution. RFR2 comprises a mixture of viral strains having protease genotypes of G48V, V82A (13/15 clones); G17E, G48V, V82A (1/15 clones); and G48V, V82A, N37D, N88D (1/15 clones). RFRR represents a mixture of resistant strains obtained by selection of RF against the compounds of Examples 1 and 2 and then cloning by three rounds of growth at limiting dilution. RFRR comprises a mixture of viral strains having protease genotypes of G48V, 154T, L63P, V82A (7/9 clones); G48V, 154T, L63P, V82A, N88S (1/9 clones); and G48V, 154T, L63P, G73M, V82A (1/9 clones). SF162 represents the HIV-1 strain SF-162 and SF162R represents a mixture of resistant strains obtained by selection of SF162 against the compound of Example 1. SF162R comprises a mixture of viral strains having protease genotypes of M461, F53L, L63P, A71V, N88D (2/3 clones); and M46I, F53L, L63P, A71V, N88D, Q92R (1/3 clones). 89-959 represents the HIV-1 strain 89-959 and 89-959R represents a mixture of resistant strains obtained by selection of 89-959 against the compound of Example 2. 89-959R comprises a mixture of viral strains having protease genotypes of N88S (4/5 clones); and D25N, T26A, D30N, D37N, R41K, G73D, R87K, N88S (1/4 clones). NL4 represents the HIV-1 strain HIV-1NL4-3. NL4(G48V) represents a strain having a synthetically generated site-directed mutation in the protease from glycine to valine at amino acid position number 48. NL4(I84V) represents a strain having a synthetically generated site-directed mutation in the protease from isoleucine to valine at amino acid position number 84. NL4(R8Q,M46I) represents a strain having synthetically generated site-directed mutations in the protease from arginine to glutamine at amino acid position number 8 and methionine to isoleucine at amino acid position number 46. NL4(P22-538) represents a mixture of resistant strains obtained by selection of HIV-1NL4-3 against the compound of Example 10 after 22 passages comprising protease genotypes M46I, L63P, A71V, V82F, I84V (4/10); M46I, L63P, V82F, I84V (3/10); and M46I, A71V, V82F, I84V (3/10). NL4(P37-538) represents resistant strains obtained by selection of HIV-1NL4-3 against the compound of Example 10 after 37 passages comprising protease genotype M46I, L63P, A71V, 184A. NL4(538/524) represents resistant strains obtained by selection of NL4(P22-538) against the compound of Example 5 after 24 passages comprising protease genotype M46I, L63P, A71V, 184A. NL4(538/P7-AG) represents a mixture of resistant strains obtained by selection of NL4(P22-538) against the compound of Example 12 after 7 passages comprising protease genotypes M46I, L63P, A71V, 184A; and V321, V82I. NL4(538/P24-AG) represents resistant strains obtained by selection of NL4(P22-538) against the compound of Example 12 after 24 passages comprising protease genotype M46I, L63P, A71V, 184A. NLA(P19-003) represents resistant strains obtained by selection of HIV-1^NL4-3 against the compound of Example 9 after 19 passages comprising protease genotype R8K, M46I. NL4(P34-003) represents resistant strains obtained by selection of HIV-1^NL4-3 against the compound of Example 9 after 34 passages comprising protease genotype R8K, M46I, L63P, A71V, L90M.
(§2) The viral isolate resistance results summarized in Tables 4-6 were generated according to the following assay procedure or minor modifications thereof. Assays are performed in 96-well tissue culture plates. […]

[1] = test system: RFR2 (RFR cloned by three rounds of limiting dilution); test: CEM-T4 cell infection assay, reverse transcriptase readout, resistant isolate RFR2; format: cell-based, HIV-1; details: Human immunodeficiency virus 1, 168 h, Table 6, CEM-T4 cells, 7 days, read-out: Virus Isolate (EC50 ng/mL) RFR2
Text: as §1, §2

[2] = test system: RFRR (resistant strains selected from RF against Examples 1 and 2); test: CEM-T4 cell infection assay, reverse transcriptase readout, resistant isolate RFRR; format: cell-based, HIV-1; details: Human immunodeficiency virus 1, 168 h, Table 6, CEM-T4 cells, 7 days, read-out: Virus Isolate (EC50 ng/mL) RFRR
Text: as §1, §2

HIV-1NL4-3 = test: microbe, parasite or virus in culture; format: cell-based; details: Human immunodeficiency virus 1, NL4
Text: (§3) RF represents the HIV-1 strain HIV-LRF and RFR represents a mixture of resistant strains obtained by selection of RF against the compound of Example 1. […] RFR2 represents a mixture of resistant strains obtained by cloning RFR by three rounds of growth at limiting dilution. […] RFRR represents a mixture of resistant strains obtained by selection of RF against the compounds of Examples 1 and 2 and then cloning by three rounds of growth at limiting dilution. […] SF162 represents the HIV-1 strain SF-162 and SF162R represents a mixture of resistant strains obtained by selection of SF162 against the compound of Example 1. […] 89-959 represents the HIV-1 strain 89-959 and 89-959R represents a mixture of resistant strains obtained by selection of 89-959 against the compound of Example 2. […] NL4 represents the HIV-1 strain HIV-1NL4-3. NL4(G48V) represents a strain having a synthetically generated site-directed mutation in the protease from glycine to valine at amino acid position number 48. NL4(I84V) represents a strain having a synthetically generated site-directed mutation in the protease from isoleucine to valine at amino acid position number 84. NL4(R8Q,M46I) represents a strain having synthetically generated site-directed mutations in the protease from arginine to glutamine at amino acid position number 8 and methionine to isoleucine at amino acid position number 46.

NL4(I84V) = test: Viral isolate resistance assay per Markowitz et al., NL4(I84V); format: cell-based, HIV-1; details: Human immunodeficiency virus 1, Table 7
Text: as §3

NL4(P37-538) = test: Viral isolate resistance assay per Markowitz et al., NL4(P37-538); format: cell-based, HIV-1; details: Human immunodeficiency virus 1, read-out: Virus Isolate (EC50 nM) NL4(P37-538)
Text: as §1
The viral isolate resistance results summarized in Tables 7-11 were generated according to the assay procedures described by Markowitz et al., Journal of Virology, vol. […]

SMILES: CC(C)CN(C[C@@H](O)[C@H](Cc1ccccc1)NC(=O)[C@@H](NC(=O)CN1CCCC1)C(C)(C)C)S(=O)(=O)c1ccc2c(c1)OCO2 [Example 14, N-[2R-hydroxy-3-[[(1,3-benzodioxol-5-yl)sulfonyl](2-methylpropyl)amino]-1S-(phenylmethyl)propyl]-2S-[[(pyrrolidin-1-yl)acetyl]amino]-3,3-dimethylbutanamide]
- EC50 (HIV-1RF): 1 ng/mL (≈ 1.55 nM)
- EC50 [1]: 6 ng/mL (≈ 9.3 nM)
- EC50 [2]: 39 ng/mL (≈ 60.5 nM)
- EC90 (HIV-1NL4-3; Table 7, EC90, read-out: Virus Isolate (EC90 nM) NL4): 8 nM
- EC50 (HIV-1NL4-3; Table 9, read-out: Virus Isolate (EC50 nM) NL4): 60 nM
- EC90 (NL4(I84V)): 72 nM
- EC50 (NL4(P37-538)): 1000 nM
